# Data as given in ChEMBL document CHEMBL5291721, “A preclinical secondary pharmacology resource illuminates target-adverse drug reaction associations of marketed drugs” (Nat Commun, 2023).
# Columns and labels:
# [1] = biological target: T1, Endothelin receptor type B (Homo sapiens, UniProt P24530)
# T1 sequence (P24530 whole entry): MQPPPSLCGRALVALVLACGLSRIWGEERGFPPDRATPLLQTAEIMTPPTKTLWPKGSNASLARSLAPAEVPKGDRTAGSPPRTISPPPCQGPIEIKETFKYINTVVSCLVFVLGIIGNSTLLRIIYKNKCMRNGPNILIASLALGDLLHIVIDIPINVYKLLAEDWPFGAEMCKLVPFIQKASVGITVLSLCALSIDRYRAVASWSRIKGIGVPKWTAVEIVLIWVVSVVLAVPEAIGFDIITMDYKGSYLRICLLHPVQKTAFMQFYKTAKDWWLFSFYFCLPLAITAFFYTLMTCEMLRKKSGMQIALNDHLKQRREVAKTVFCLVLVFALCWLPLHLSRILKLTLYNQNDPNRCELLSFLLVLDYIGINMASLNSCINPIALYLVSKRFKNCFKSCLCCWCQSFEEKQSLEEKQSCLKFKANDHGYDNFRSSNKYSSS
# [2] = biological target: Voltage-dependent N-type calcium channel subunit alpha-1B (Rattus norvegicus, UniProt Q02294); type: functional
# Voltage-dependent N-type calcium channel subunit alpha-1B, sequence (Q02294 whole entry): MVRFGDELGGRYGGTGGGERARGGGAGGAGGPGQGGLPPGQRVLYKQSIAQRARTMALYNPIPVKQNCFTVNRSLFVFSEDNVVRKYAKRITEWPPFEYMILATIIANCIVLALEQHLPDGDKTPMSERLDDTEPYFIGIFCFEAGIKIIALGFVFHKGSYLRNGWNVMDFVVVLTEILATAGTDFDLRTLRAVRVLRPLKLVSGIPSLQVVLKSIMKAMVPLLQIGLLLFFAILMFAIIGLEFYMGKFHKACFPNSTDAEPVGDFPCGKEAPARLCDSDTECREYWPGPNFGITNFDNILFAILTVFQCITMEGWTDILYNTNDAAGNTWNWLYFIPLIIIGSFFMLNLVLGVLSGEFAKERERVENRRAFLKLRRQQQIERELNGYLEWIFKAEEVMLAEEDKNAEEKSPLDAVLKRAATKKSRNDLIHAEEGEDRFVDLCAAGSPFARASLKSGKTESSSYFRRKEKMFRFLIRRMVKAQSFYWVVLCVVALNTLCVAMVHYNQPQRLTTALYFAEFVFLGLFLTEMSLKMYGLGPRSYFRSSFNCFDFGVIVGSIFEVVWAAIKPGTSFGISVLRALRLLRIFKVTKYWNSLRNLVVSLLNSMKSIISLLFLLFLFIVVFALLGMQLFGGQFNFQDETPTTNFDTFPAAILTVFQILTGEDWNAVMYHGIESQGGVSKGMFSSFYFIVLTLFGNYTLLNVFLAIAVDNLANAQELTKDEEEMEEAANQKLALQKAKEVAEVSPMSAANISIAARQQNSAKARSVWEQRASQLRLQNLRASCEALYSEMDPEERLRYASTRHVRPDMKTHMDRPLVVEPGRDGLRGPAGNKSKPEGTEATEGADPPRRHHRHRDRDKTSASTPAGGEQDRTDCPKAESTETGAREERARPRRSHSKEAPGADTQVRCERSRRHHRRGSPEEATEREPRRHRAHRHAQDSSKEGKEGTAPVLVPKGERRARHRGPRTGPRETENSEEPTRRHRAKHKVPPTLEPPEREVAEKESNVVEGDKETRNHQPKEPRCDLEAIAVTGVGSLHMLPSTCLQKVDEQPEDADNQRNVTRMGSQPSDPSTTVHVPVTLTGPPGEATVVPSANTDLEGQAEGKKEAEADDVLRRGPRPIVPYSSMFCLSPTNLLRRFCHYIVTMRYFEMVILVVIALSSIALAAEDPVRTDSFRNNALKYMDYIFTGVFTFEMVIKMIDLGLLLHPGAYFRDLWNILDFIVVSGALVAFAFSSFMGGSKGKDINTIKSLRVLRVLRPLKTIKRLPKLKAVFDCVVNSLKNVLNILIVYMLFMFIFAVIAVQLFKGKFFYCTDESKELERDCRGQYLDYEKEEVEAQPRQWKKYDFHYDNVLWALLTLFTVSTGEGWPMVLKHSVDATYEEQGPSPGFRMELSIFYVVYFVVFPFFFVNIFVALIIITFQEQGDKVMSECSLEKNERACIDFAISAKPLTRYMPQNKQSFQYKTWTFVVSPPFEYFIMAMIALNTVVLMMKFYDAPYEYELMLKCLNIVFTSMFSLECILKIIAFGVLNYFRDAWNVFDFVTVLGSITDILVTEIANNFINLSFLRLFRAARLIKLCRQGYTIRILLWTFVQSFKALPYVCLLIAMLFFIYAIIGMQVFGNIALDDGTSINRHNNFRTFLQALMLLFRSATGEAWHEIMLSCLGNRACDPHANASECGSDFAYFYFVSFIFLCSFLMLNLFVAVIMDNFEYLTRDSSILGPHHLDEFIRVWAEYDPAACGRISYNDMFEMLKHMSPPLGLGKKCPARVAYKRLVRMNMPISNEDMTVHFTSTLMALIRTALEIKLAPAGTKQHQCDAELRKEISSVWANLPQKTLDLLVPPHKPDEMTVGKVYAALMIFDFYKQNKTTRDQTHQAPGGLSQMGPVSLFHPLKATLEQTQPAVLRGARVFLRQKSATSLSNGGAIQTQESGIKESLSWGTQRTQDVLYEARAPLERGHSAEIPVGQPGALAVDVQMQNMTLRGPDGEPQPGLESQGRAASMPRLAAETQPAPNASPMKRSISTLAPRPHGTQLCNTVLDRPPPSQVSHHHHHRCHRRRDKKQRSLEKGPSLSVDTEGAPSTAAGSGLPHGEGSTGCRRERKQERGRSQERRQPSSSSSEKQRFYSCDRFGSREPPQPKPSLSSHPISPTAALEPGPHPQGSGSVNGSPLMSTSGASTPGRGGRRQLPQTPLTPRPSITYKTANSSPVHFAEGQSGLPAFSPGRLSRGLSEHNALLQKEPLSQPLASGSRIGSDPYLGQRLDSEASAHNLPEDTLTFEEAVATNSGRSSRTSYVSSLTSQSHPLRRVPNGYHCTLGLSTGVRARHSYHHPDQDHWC
# [3] = biological target: T2, Alpha-1A adrenergic receptor (Homo sapiens, UniProt P35348)
# T2 sequence (P35348 whole entry): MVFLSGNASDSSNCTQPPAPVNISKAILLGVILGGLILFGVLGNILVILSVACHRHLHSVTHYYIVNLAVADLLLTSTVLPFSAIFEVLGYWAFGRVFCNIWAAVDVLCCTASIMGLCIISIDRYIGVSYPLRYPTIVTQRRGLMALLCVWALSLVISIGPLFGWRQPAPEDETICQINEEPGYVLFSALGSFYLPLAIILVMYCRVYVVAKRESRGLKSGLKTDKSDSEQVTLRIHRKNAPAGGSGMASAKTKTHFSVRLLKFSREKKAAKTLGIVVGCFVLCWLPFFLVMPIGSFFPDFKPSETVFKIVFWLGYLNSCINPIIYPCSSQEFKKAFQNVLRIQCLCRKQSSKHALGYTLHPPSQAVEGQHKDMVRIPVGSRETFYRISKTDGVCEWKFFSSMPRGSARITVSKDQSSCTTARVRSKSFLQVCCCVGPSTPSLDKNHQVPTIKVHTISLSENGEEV
# [4] = biological target: T3, Alpha-2A adrenergic receptor (Homo sapiens, UniProt P08913)
# T3 sequence (P08913 whole entry): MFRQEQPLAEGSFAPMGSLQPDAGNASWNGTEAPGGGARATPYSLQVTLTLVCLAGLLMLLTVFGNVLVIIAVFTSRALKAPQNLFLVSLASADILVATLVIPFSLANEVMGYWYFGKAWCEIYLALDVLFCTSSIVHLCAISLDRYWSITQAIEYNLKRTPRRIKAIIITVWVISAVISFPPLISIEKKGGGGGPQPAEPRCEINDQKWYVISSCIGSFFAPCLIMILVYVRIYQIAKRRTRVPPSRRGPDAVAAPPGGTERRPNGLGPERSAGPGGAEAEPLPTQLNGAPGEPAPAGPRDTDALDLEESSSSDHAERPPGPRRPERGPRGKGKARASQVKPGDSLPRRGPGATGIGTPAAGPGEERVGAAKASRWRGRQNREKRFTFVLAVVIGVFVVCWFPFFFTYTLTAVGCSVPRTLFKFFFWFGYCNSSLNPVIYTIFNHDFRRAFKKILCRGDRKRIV
# [5] = biological target: T4, Neuropeptide Y receptor type 2 (Homo sapiens, UniProt P49146)
# T4 sequence (P49146 whole entry): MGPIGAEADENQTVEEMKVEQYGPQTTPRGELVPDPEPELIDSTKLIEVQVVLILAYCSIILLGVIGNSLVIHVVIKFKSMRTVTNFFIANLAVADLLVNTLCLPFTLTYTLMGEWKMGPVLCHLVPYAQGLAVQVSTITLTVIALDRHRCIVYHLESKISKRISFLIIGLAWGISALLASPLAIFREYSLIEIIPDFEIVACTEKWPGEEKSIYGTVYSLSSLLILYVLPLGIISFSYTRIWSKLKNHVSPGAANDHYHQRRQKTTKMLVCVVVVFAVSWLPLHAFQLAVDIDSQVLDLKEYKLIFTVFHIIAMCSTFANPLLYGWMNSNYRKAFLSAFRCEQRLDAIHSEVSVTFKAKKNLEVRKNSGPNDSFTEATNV
# [6] = biological target: T5, Corticotropin-releasing factor receptor 1 (Homo sapiens, UniProt P34998)
# T5 sequence (P34998 whole entry): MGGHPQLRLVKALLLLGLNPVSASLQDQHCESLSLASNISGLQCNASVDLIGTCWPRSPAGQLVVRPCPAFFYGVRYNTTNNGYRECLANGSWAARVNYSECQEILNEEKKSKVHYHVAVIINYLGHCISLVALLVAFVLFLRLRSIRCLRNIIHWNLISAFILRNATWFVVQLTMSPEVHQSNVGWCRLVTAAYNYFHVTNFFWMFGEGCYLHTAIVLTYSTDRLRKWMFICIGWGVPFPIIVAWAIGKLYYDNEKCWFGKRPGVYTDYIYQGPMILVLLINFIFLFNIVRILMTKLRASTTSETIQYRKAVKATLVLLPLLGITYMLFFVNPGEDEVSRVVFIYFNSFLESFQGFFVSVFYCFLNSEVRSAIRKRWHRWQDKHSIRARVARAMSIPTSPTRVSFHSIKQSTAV
# B1 bradykinin receptor = biological target: T6, B1 bradykinin receptor (Homo sapiens, UniProt P46663)
# T6 sequence (P46663 whole entry): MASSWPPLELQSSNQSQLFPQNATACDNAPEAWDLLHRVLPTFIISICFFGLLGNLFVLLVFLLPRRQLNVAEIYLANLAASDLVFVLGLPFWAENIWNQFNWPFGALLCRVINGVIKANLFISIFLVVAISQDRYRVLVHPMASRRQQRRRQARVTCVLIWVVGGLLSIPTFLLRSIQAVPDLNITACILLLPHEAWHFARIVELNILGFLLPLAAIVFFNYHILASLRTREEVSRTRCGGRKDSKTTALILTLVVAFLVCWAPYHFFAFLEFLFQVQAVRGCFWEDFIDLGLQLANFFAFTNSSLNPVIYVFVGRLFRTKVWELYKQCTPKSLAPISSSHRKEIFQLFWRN
# Glucagon receptor = Glucagon receptor (Homo sapiens, UniProt P47871)
# Glucagon receptor, sequence (P47871 whole entry): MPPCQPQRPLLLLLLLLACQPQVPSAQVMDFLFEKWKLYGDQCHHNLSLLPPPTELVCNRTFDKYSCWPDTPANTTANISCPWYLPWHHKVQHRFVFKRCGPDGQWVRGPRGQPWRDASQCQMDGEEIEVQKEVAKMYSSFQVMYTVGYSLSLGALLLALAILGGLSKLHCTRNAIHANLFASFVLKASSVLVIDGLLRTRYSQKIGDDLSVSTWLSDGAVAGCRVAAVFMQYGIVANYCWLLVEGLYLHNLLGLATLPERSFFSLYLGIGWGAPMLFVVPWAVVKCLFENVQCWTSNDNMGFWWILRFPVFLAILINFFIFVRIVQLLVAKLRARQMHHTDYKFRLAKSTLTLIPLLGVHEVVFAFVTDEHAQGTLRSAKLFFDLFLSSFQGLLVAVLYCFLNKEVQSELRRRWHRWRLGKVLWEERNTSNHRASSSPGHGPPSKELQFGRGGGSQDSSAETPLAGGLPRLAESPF
# Estrogen receptor beta = Estrogen receptor beta (Homo sapiens, UniProt Q92731)
# Estrogen receptor beta, sequence (Q92731 whole entry): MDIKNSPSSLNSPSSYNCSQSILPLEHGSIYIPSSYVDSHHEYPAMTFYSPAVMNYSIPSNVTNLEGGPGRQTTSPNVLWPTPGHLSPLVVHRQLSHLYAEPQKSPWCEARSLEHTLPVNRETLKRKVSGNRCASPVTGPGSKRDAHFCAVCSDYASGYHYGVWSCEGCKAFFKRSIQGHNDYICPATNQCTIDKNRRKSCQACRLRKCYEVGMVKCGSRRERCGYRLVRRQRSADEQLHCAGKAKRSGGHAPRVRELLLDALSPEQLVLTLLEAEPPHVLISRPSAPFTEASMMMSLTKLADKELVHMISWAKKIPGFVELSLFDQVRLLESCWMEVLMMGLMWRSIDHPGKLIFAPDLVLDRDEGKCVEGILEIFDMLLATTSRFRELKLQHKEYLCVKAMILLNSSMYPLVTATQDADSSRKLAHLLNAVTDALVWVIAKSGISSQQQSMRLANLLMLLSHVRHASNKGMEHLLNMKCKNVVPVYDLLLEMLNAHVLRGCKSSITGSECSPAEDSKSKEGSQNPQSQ
# [7] = biological target: Gamma-aminobutyric acid receptor subunit alpha-1 (Rattus norvegicus, UniProt P62813)
# Gamma-aminobutyric acid receptor subunit alpha-1, sequence (P62813 whole entry): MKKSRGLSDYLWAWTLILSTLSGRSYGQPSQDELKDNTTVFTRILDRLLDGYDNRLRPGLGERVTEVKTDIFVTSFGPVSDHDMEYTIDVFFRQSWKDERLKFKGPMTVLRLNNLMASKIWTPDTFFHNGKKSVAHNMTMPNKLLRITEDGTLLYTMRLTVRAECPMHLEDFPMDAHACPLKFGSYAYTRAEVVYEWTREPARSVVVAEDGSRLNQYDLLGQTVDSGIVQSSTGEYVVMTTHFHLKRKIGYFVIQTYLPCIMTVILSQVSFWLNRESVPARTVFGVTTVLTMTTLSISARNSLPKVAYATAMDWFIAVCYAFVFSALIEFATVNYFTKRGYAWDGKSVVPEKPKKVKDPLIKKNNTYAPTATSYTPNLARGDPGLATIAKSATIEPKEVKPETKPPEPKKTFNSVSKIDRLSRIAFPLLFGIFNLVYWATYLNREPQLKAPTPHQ
# Further: assay procedure not described here.
AC50 [4],SMILES,AC50 [1],AC50 [2],AC50 [3],AC50 [5],AC50 [6],AC50 (B1 bradykinin receptor),AC50 (Glucagon receptor),AC50 (Estrogen receptor beta),AC50 [7]
–,Clc1ccc2nsnc2c1NC1=NCCN1 [TIZANIDINE],> 30 µM,> 10 µM,1.92 µM,> 30 µM,> 30 µM,> 30 µM,> 30 µM,> 30 µM,–
13 µM,COc1ccccc1OCC(O)CN1CCN(CC(=O)Nc2c(C)cccc2C)CC1 (stereo unspecified) [RANOLAZINE],–,–,–,–,–,–,–,–,–
–,C[N+](C)(C)CCO [CHOLINE],–,–,–,–,–,–,–,–,> 30 µM
> 10 µM,CCOC(=O)[C@H](CCc1ccccc1)N[C@@H](C)C(=O)N1[C@H](C(=O)O)C[C@@H]2CCC[C@@H]21,> 30 µM,> 10 µM,> 10 µM,> 30 µM,> 30 µM,> 30 µM,> 30 µM,> 30 µM,–
–,COCc1c(C(C)C)nc(C(C)C)c(/C=C/[C@@H](O)C[C@@H](O)CC(=O)O)c1-c1ccc(F)cc1 [CERIVASTATIN],–,–,–,–,–,–,–,–,> 30 µM
–,CN(C)CC(c1ccc(O)cc1)C1(O)CCCCC1 (stereo unspecified) [DESVENLAFAXINE],–,–,–,–,–,–,–,–,> 30 µM
–,CCc1oc2ccccc2c1C(=O)c1cc(I)c(O)c(I)c1 [BENZIODARONE],–,–,–,–,–,–,–,–,17.1 µM
–,CCCN1C[C@H](CSC)C[C@@H]2c3cccc4[nH]cc(c34)C[C@H]21 [PERGOLIDE],> 30 µM,> 10 µM,–,> 30 µM,> 30 µM,> 30 µM,> 30 µM,> 30 µM,–
> 10 µM,C[C@]12CCC(=O)C=C1CC[C@@H]1[C@@H]2[C@@H](O)C[C@@]2(C)[C@H]1CC[C@]2(O)C(=O)CO [HYDROCORTISONE],> 30 µM,> 10 µM,–,> 30 µM,> 30 µM,> 30 µM,> 30 µM,> 30 µM,–
–,CN(C)CCn1nnnc1SCC1=C(C(=O)O)N2C(=O)[C@@H](NC(=O)Cc3csc(N)n3)[C@H]2SC1 [CEFOTIAM],–,–,–,–,–,–,–,–,> 30 µM
–,CN(C)S(=O)(=O)c1ccc2c(c1)N(CCCN1CCC(CCO)CC1)c1ccccc1S2 [PIPOTIAZINE],–,–,–,–,–,–,–,–,> 30 µM
–,CC(C)C[C@H]1C(=O)N2CCC[C@H]2[C@]2(O)O[C@](NC(=O)[C@@H]3C=C4c5cccc6[nH]c(Br)c(c56)C[C@H]4N(C)C3)(C(C)C)C(=O)N12 [BROMOCRIPTINE],> 30 µM,> 10 µM,–,> 30 µM,> 30 µM,> 30 µM,> 30 µM,–,> 30 µM
–,CC(C)Nc1ncccn1 [ISAXONINE],–,–,–,–,–,–,–,–,> 30 µM
–,COCCCN1CCC(NC(=O)c2cc(Cl)c(N)c3c2OCC3)CC1 [PRUCALOPRIDE],–,–,–,–,–,–,–,–,> 30 µM
–,O=C(Cc1ccc(-c2ccccc2)cc1)Nc1ccccn1 [DIFENPIRAMIDE],–,–,–,–,–,–,–,–,> 30 µM
–,CCOC(=O)[C@H](CCc1ccccc1)N[C@@H](C)C(=O)N1[C@H](C(=O)O)C[C@H]2CCCC[C@@H]21 [TRANDOLAPRIL],–,–,–,–,–,–,–,–,> 30 µM
–,CC1(C)NC(=O)N(c2ccc([N+](=O)[O-])c(C(F)(F)F)c2)C1=O [NILUTAMIDE],–,–,–,–,–,–,–,–,> 30 µM
–,CCC1=C(C)CN(C(=O)NCCc2ccc(S(=O)(=O)NC(=O)N[C@H]3CC[C@H](C)CC3)cc2)C1=O [GLIMEPIRIDE],–,–,–,–,–,–,–,–,> 30 µM
–,CCC(=O)NCC[C@@H]1CCc2ccc3c(c21)CCO3 [RAMELTEON],–,–,–,–,–,–,–,–,> 30 µM
–,CN(C)[C@@H](c1cccc(O)c1)[C@H]1CCCC[C@H]1O [CIRAMADOL],–,–,–,–,–,–,–,–,> 30 µM
–,Cc1cc(C#N)cc(C)c1Oc1nc(Nc2ccc(C#N)cc2)nc(N)c1Br [ETRAVIRINE],–,–,–,–,–,–,–,–,> 30 µM
–,CO[C@H]1C[C@@H]2CC[C@@H](C)[C@@](O)(O2)C(=O)C(=O)N2CCCC[C@H]2C(=O)O[C@H]([C@H](C)C[C@@H]2CC[C@@H](O)[C@H](OC)C2)CC(=O)[C@H](C)/C=C(\C)[C@@H](O)[C@@H](OC)C(=O)[C@H](C)C[C@H](C)/C=C/C=C/C=C/1C [SIROLIMUS],> 30 µM,> 10 µM,–,> 30 µM,> 30 µM,> 30 µM,> 30 µM,> 30 µM,> 30 µM
–,N[C@@H](C(=O)N[C@@H]1C(=O)N2C(C(=O)O)=C(Cl)CC[C@H]12)c1ccccc1 [LORACARBEF ANHYDROUS],–,–,–,–,–,–,–,–,> 30 µM
> 10 µM,CN(C)CCC(c1ccc(Cl)cc1)c1ccccn1 (stereo unspecified) [CHLORPHENIRAMINE],> 30 µM,> 10 µM,> 10 µM,> 30 µM,> 30 µM,> 30 µM,> 30 µM,–,–
> 10 µM,Cc1ccc(-c2cc(C(F)(F)F)nn2-c2ccc(S(N)(=O)=O)cc2)cc1 [CELECOXIB],> 30 µM,> 10 µM,> 10 µM,> 30 µM,> 30 µM,> 30 µM,> 30 µM,–,–

SMILES,AC50 [4],AC50 [1],AC50 [2],AC50 [3],AC50 [5],AC50 [6],AC50 (B1 bradykinin receptor),AC50 (Glucagon receptor),AC50 (Estrogen receptor beta),AC50 [7]
Cc1c(C(=O)NN2CCCCC2)nn(-c2ccc(Cl)cc2Cl)c1-c1ccc(Cl)cc1 [RIMONABANT],> 10 µM,> 30 µM,> 10 µM,13.7 µM,> 30 µM,> 30 µM,> 30 µM,> 30 µM,> 30 µM,–
CS(=O)(=O)c1ccc(C2=C(c3ccccc3)C(=O)OC2)cc1 [ROFECOXIB],> 10 µM,> 30 µM,> 10 µM,> 10 µM,> 30 µM,> 30 µM,> 30 µM,> 30 µM,> 30 µM,–
Cn1nnc2c(C(N)=O)ncn2c1=O [TEMOZOLOMIDE],> 10 µM,> 30 µM,> 10 µM,> 10 µM,> 30 µM,> 30 µM,> 30 µM,> 30 µM,> 30 µM,–
Cc1cn([C@H]2C[C@H](N=[N+]=[N-])[C@@H](CO)O2)c(=O)[nH]c1=O [ZIDOVUDINE],> 10 µM,> 30 µM,> 10 µM,> 10 µM,> 30 µM,> 30 µM,> 30 µM,> 30 µM,–,> 30 µM
